Source: US20230141101A1, “PDE4 INHIBITOR COMPOUND AND MEDICAL USE THEREOF” (Suzhou Longbotai Pharmaceuticals Co., Ltd., priority 2020, published 2023)

Tests used:
Assay type in all cases: biochemical
Settings in all cases: 20 nM
[1] = molecular target: T1, PDE4A1A (Homo sapiens, UniProt P27815); test: PDE4 inhibitory activity assay (FAM-cAMP enzymatic reaction), PDE4A1A
T1 construct: purchased BPS 60040
How it was run: (§1)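 Human PDE4A1A, PDE4B1 or PDE4D2 preincubated with compound 15 min at room temperature, then FAM-cAMP substrate added; reaction 30 min at room temperature before stop solution and further 60 min. Fluorescence read on multilabel counter; IC50 fitted from inhibition rates.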

[2] = molecular target: T2, PDE4B1 (Homo sapiens, UniProt Q07343); test: PDE4 inhibitory activity assay (FAM-cAMP enzymatic reaction), PDE4B1
T2 construct: purchased BPS 60041
T2 sequence (Q07343 whole entry): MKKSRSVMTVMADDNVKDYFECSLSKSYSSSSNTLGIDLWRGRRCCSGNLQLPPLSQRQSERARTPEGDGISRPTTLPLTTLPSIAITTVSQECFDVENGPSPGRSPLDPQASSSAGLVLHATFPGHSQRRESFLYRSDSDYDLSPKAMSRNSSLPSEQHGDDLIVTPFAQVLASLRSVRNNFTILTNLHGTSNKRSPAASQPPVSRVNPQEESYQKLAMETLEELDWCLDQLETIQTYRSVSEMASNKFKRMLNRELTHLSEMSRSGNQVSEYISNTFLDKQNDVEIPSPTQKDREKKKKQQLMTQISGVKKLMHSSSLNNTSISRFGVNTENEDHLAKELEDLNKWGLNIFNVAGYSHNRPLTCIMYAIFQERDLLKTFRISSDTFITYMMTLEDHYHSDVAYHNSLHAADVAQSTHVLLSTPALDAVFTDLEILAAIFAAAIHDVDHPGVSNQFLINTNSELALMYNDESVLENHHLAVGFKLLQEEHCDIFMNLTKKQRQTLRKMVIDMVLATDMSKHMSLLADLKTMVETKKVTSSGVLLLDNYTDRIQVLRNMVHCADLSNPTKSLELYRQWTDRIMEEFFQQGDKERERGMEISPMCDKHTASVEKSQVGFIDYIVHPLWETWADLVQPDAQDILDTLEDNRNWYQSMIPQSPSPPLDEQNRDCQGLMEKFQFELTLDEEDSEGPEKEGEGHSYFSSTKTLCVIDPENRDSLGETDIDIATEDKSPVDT
How it was run: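 Each isoform is incubated with test compound for 15 min at room temperature before FAM-cAMP substrate starts a 30-min reaction.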

[3] = molecular target: PDE4D2 (Homo sapiens, UniProt Q08499); test: PDE4 inhibitory activity assay (FAM-cAMP enzymatic reaction), PDE4D2
PDE4D2, sequence (Q08499 303-809): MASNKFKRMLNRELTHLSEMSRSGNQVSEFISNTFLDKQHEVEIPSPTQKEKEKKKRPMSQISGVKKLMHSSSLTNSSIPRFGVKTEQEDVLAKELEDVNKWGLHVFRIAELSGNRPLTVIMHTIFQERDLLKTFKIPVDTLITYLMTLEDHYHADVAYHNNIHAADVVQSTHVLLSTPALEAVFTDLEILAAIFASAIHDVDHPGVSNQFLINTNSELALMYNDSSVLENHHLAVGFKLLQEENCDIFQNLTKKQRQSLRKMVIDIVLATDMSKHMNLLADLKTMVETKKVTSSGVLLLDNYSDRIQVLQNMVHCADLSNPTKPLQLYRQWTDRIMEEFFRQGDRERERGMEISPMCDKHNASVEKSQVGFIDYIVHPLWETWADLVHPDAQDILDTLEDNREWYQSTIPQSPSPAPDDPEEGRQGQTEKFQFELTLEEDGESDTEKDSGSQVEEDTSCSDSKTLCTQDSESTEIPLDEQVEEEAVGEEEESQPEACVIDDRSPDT
How it was run: as §1

T1 sequence (P27815 1-647 isoform P27815-4): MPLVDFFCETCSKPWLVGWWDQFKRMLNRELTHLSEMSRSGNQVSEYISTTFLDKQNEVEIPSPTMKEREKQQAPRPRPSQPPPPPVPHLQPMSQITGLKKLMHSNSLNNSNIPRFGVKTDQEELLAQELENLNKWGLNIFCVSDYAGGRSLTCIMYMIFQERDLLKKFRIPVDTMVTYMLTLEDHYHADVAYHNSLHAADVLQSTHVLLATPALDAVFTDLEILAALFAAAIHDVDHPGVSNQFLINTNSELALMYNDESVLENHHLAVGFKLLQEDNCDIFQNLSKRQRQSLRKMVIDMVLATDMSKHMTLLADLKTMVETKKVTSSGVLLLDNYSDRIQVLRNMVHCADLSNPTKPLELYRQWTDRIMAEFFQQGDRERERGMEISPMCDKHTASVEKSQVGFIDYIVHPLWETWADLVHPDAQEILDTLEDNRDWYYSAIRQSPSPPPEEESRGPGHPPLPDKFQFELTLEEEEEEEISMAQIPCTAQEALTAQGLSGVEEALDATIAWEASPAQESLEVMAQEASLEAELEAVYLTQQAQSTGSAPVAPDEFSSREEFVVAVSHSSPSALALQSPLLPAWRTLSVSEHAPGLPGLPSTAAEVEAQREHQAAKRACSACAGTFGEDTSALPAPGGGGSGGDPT

Row | SMILES | PDE4 A1 inhibitory effect at 20 nM [1] | PDE4 B1 inhibitory effect at 20 nM [2] | PDE4 D2 inhibitory effect at 20 nM [3]
1 | CCOc1nc([C@@H](CS(C)(=O)=O)n2c(=O)[nH]c3c(-c4ccccc4F)cccc32)ccc1OC [Ex. 205, (S)-1-(1-(6-ethoxy-5-methoxypyridin-2-yl)-2-(methylsulfonyl)ethyl)-4-(2-fluorophenyl)-1H-benzo[d]imidazol-2(3H)-one] | + | + | +
2 | CCOc1nc([C@@H](CS(C)(=O)=O)n2c(=O)[nH]c3c(Cc4ccccc4F)cccc32)ccc1OC [Ex. 207, (S)-1-(1-(6-ethoxy-5-methoxypyridin-2-yl)-2-(methylsulfonyl)ethyl)-4-(2-fluorobenzyl)-1H-benzo[d]imidazol-2(3H)-one] | + | + | +
3 | CCOc1nc([C@@H](CS(C)(=O)=O)N2Cc3cccc(NC(=O)C4CC4)c3C2=O)ccc1OC [Ex. 217, (S)—N-(2-(1-(6-ethoxy-5-methoxypyridin-2-yl)-2-(methylsulfonyl)ethyl)-3-oxoisoindolin-4-yl)cyclopropanecarboxamide] | + | + | +
4 | CCOc1nc([C@H](CS(C)(=O)=O)N2Cc3cccc(NC(=O)C4CC4)c3C2=O)ccc1OC [Ex. 218, (R)—N-(2-(1-(6-ethoxy-5-methoxypyridin-2-yl)-2-(methylsulfonyl)ethyl)-3-oxoisoindolin-4-yl)cyclopropanecarboxamide] | + | + | +
5 | CCOc1nc(C(CS(C)(=O)=O)N2C(=O)c3csc([N+](=O)[O-])c3C2=O)ccc1OC (stereo not drawn) [Ex. 221, 5-(1-(6-ethoxy-5-methoxypyridin-2-yl)-2-(methylsulfonyl)ethyl)-1-nitro-4H-thieno[3,4-c]pyrrol-4,6(5H)-dione] | + | + | +
6 | CCOc1nc([C@@H](CS(C)(=O)=O)N2C(=O)c3csc([N+](=O)[O-])c3C2=O)ccc1OC [Ex. 222, (S)-5-(1-(6-ethoxy-5-methoxypyridin-2-yl)-2-(methylsulfonyl)ethyl)-1-nitro-4H-thieno[3,4-c]pyrrol-4,6(5H)-dione] | + | + | +
7 | CCOc1nc(C(CS(C)(=O)=O)N2C(=O)c3csc(NC(C)=O)c3C2=O)ccc1OC (stereo not drawn) [Ex. 224, N-(5-(1-(6-ethoxy-5-methoxypyridin-2-yl)-2-(methylsulfonyl)ethyl)-4,6-dioxo-5,6-dihydro-4H-thieno[3,4-c]pyrrol-1-yl)acetamide] | + | + | +
8 | CCOc1nc([C@H](CS(C)(=O)=O)N2C(=O)c3csc(NC(C)=O)c3C2=O)ccc1OC [Ex. 225, (R)—N-(5-(1-(6-ethoxy-5-methoxypyridin-2-yl)-2-(methylsulfonyl)ethyl)-4,6-dioxo-5,6-dihydro-4H-thieno[3,4-c]pyrrol-1-yl)acetamide] | − | − | −
9 | CCOc1nc([C@@H](CS(C)(=O)=O)N2C(=O)c3csc(NC(=O)CC)c3C2=O)ccc1OC [Ex. 226, (S)—N-(5-(1-(6-ethoxy-5-methoxypyridin-2-yl)-2-(methylsulfonyl)ethyl)-4,6-dioxo-5,6-dihydro-4H-thieno[3,4-c]pyrrol-1-yl)propionamide] | + | + | +
10 | CCOc1nc([C@@H](CS(C)(=O)=O)N2C(=O)c3csc(NC(=O)C4CC4)c3C2=O)ccc1OC [Ex. 227, (S)—N-(5-(1-(6-ethoxy-5-methoxypyridin-2-yl)-2-(methylsulfonyl)ethyl)-4,6-dioxo-5,6-dihydro-4H-thieno[3,4-c]pyrrol-1-yl)cyclopropanecarboxamide] | + | + | +
11 | CCOc1nc([C@@H](CS(C)(=O)=O)N2C(=O)c3csc(NC(=O)CN(C)C)c3C2=O)ccc1OC [Ex. 228, (S)-2-(dimethylamino)-N-(5-(1-(6-ethoxy-5-methoxypyridin-2-yl)-2-(methylsulfonyl)ethyl)-4,6-dioxo-5,6-dihydro-4H-thieno[3,4-c]pyrrol-1-yl)acetamide] | + | + | +

Other lines, results leading:

Row | PDE4 A1 inhibitory effect at 20 nM [1] | PDE4 B1 inhibitory effect at 20 nM [2] | PDE4 D2 inhibitory effect at 20 nM [3] | SMILES
12 | + | + | + | CCOc1nc([C@@H](CS(C)(=O)=O)n2c(=O)[nH]c3c(-c4ccccc4)cccc32)ccc1OC [Ex. 206, (S)-1-(1-(6-ethoxy-5-methoxypyridin-2-yl)-2-(methylsulfonyl)ethyl)-4-phenyl-1H-benzo[d]imidazol-2(3H)-one]
13 | + | + | + | CCOc1nc([C@@H](CS(C)(=O)=O)n2c(=O)n(C3CC3)c3cc(-c4ccccc4F)ccc32)ccc1OC [Ex. 208, (S)-3-cyclopropyl-1-(1-(6-ethoxy-5-methoxypyridin-2-yl)-2-(methylsulfonyl)ethyl)-5-(2-fluorophenyl)-1H-benzo[d]imidazol-2(3H)-one]
14 | + | + | + | CCOc1nc([C@@H](CS(C)(=O)=O)n2c(=O)n(C3CC3)c3cc(C)ccc32)ccc1OC [Ex. 209, (S)-3-cyclopropyl-1-(1-(6-ethoxy-5-methoxypyridin-2-yl)-2-(methylsulfonyl)ethyl)-5-methyl-1H-benzo[d]imidazol-2(3H)-one]
15 | − | − | − | CCOc1nc([C@@H](CS(C)(=O)=O)n2c(=O)n(CCS(C)(=O)=O)c3cc(Br)ccc32)ccc1OC [Ex. 210, (S)-5-bromo-1-(1-(6-ethoxy-5-methoxypyridin-2-yl)-2-(methylsulfonyl)ethyl)-3-(2-(methylsulfonyl)ethyl)-1H-benzo[d]imidazol-2(3H)-one]
16 | + | + | + | CCOc1nc([C@@H](CS(C)(=O)=O)n2c(=O)n(C3CC3)c3cc(C(F)(F)F)ccc32)ccc1OC [Ex. 211, (S)-3-cyclopropyl-1-(1-(6-ethoxy-5-methoxypyridin-2-yl)-2-(methylsulfonyl)ethyl)-5-(trifluoromethyl)-1H-benzo[d]imidazol-2(3H)-one]
17 | + | + | + | CCOC(=O)c1ccc2c(c1)[nH]c(=O)n2[C@H](CS(C)(=O)=O)c1ccc(OC)c(OCC)n1 [Ex. 212, (S)-ethyl 1-(1-(6-ethoxy-5-methoxypyridin-2-yl)-2-(methylsulfonyl)ethyl)-2-oxo-2,3-dihydro-1H-benzo[d]imidazole-5-carboxylate]
18 | + | + | + | CCOc1nc([C@@H](CS(C)(=O)=O)n2c(=O)[nH]c3cc(C(=O)OC(C)C)ccc32)ccc1OC [Ex. 213, (S)-isopropyl 1-(1-(6-ethoxy-5-methoxypyridin-2-yl)-2-(methylsulfonyl)ethyl)-2-oxo-2,3-dihydro-1H-benzo[d]imidazole-5-carboxylate]
19 | + | + | + | CCOc1nc([C@@H](CS(C)(=O)=O)n2c(=O)[nH]c3cc(C(=O)OCC(F)(F)F)ccc32)ccc1OC [Ex. 214, (S)-2,2,2-trifluoroethyl 1-(1-(6-ethoxy-5-methoxypyridin-2-yl)-2-(methylsulfonyl)ethyl)-2-oxo-2,3-dihydro-1H-benzo[d]imidazole-5-carboxylate]
20 | + | + | + | CCOc1nc([C@@H](CS(C)(=O)=O)N2Cc3cccc(NC(C)=O)c3C2=O)ccc1OC [Ex. 215, (S)—N-(2-(1-(6-ethoxy-5-methoxypyridin-2-yl)-2-(methylsulfonyl)ethyl)-3-oxoisoindolin-4-yl)acetamide]
21 | + | + | + | CCOc1nc([C@H](CS(C)(=O)=O)N2Cc3cccc(NC(C)=O)c3C2=O)ccc1OC [Ex. 216, (R)—N-(2-(1-(6-ethoxy-5-methoxypyridin-2-yl)-2-(methylsulfonyl)ethyl)-3-oxoisoindolin-4-yl)acetamide]
22 | + | + | + | CCOc1nc([C@@H](CS(C)(=O)=O)N2Cc3cccc(NC(=O)CC)c3C2=O)ccc1OC [Ex. 219, (S)—N-(2-(1-(6-ethoxy-5-methoxypyridin-2-yl)-2-(methylsulfonyl)ethyl)-3-oxoisoindolin-4-yl)propionamide]
23 | − | − | − | CCOc1nc([C@H](CS(C)(=O)=O)N2Cc3cccc(NC(=O)CC)c3C2=O)ccc1OC [Ex. 220, (R)—N-(2-(1-(6-ethoxy-5-methoxypyridin-2-yl)-2-(methylsulfonyl)ethyl)-3-oxoisoindolin-4-yl)propionamide]
24 | + | + | + | CCOc1nc([C@@H](CS(C)(=O)=O)N2C(=O)c3csc(N)c3C2=O)ccc1OC [Ex. 223, (S)-1-amino-5-(1-(6-ethoxy-5-methoxypyridin-2-yl)-2-(methylsulfonyl)ethyl)-4H-thieno[3,4-c]pyrrol-4,6 (5H)-dione]
